Experimental data: patent US8940795B2, “Plant disease controlling composition and method for controlling plant disease” (Sumitomo Chemical Company, Limited, priority 2010, dated 2015)

Tested on: gray mold fungus (Botrytis cinerea)
Experiment: Cucumber leaf disk preventive test against gray mold fungus
Type: in vivo
Conditions: 15° C., four days
Description: True leaf of cucumber is punched out with cork borer to 13 mm in diameter to prepare a leaf disk. In 24 well microwell plate that is dispensed with 1 ml 0.8% water agar, the leaf disk is placed such that the upper side of the leaf is in an upward direction. Thereto is added 20 micro liter a testing solution prepared by mixing a dimethyl sulfoxide solution of the present compound (racemate) and a dimethyl sulfoxide solution of flutolanil to a predetermined concentration to treat the leaf disk. After confirming that the testing medical solution is dried, conidium of gray mold fungus (Botrytis cinerea) is suspended into potato dextrose broth (DIFCO) in a density of about 10^5 conidium/mL and is then subjected to a spray inoculation. After leaving to stand the leaf disk in a growth chamber set up at 15° C. for four days, an onset area on the leaf is measured and then calculated an onset area rate (hereinafter, referred to as an onset area rate of treated group). The same operation is carried out with 20 micro liter water instead of 20 micro liter a testing medicine solution to calculate an onset area rate (hereinafter, referred to an onset area rate of non-treated group). A preventive value is calculated from the above onset area rate of treated group and the onset area rate of non-treated group by the following equation: Preventive value(%)=100×(A−B)/A wherein […] The same operations as described in Test Example 1 are carried out with zoxamide instead of flutolanil, so as to calculate a preventive value. Also for comparison, the same operations as described in Test Example 1 are carried out with the exception that the testing medicine solution is substituted with a predetermined concentration of each dimethyl sulfoxide solution of the present compound (racemate) or zoxamide, so as to calculate respective preventive values. For comparison, the same operations as described in Test Example 1 are carried out with the exception that the testing medicine solution is substituted with a predetermined concentration of a dimethyl sulfoxide solution of flutolanil, so as to calculate a preventive value.

SMILES	preventive value (%) (zoxamide alone 0.5 ppm)	preventive value (%) (zoxamide alone 5.0 ppm)	preventive value (%) (flutolanil alone 0.5 ppm)	preventive value (%) (flutolanil alone 5.0 ppm)
CCC(C)(NC(=O)c1cc(Cl)c(C)c(Cl)c1)C(=O)CCl (stereo not shown) [zoxamide]	10	15	–	–
CC(C)Oc1cccc(NC(=O)c2ccccc2C(F)(F)F)c1 [flutolanil]	–	–	10	15
